Data published in patent US6071884A, “Pharmaceutical compositions and therapeutic methods” (Kirin Beer Kabushiki Kaisha, priority 1992, dated 2000).

What was measured:
[1] = tested on: marrow cells (mononuclear cell fraction); test: Proliferation-stimulating effect on marrow cell of mouse (3H-TdR uptake); format: cell-based, mouse (BALB/c); conditions: percentage of control, 72 h; for activity at 0.1 µg/mL: 10^-1 μg/ml; for activity at 0.01 µg/mL: 10^-2 μg/ml; for activity at 0.001 µg/mL: 10^-3 μg/ml; for activity at 1 µg/mL: 10^0 μg/ml
Method in brief: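 Mononuclear marrow cell fraction from 7-week-old female BALB/c mouse thigh bone, 1.5×10^6 cells/ml in 10% FCS RPMI 1640, cultured with test sample 72 h at 37° C. ³H-thymidine (0.5 μCi/well) then added for 8 h; nuclear ³H-TdR uptake counted by liquid scintillation.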

[2] = Life-span-increasing effect on irradiation of a lethal dose of radiation; format: in vivo, mouse (BDF1); conditions: 10 mice/group, 9 Gy X-ray, 0.1 mg/kg i.v. days 0, 4, 8
Method: Pharmacological Test 4: Life-Span-Increasing Effect on Irradiation of a Lethal Dose of Radiation
An experiment was carried out by using 6 week old female BDF1 mice purchased from Japan SLC Co., Ltd., with 10 mice made one group.
The entire bodies of the entire body of the mice were irradiated with 9 Gy of X-rays by using a Hitachi X-ray irradiator (MBR-1520R), and the day on which the X-ray was irradiated was referred to as "day 0".

blood platelets [3] = test: Thrombocytopenia-inhibiting effect in X-ray-irradiated mice; format: in vivo, mouse (BDF1); conditions: 10 days after 5 Gy X-ray; 0.1 mg/kg i.v. within 2 h; mean ± SD; vehicle per series 10.3, 6.8, 6.7; non-treatment 68.2, 96.9, 73.0
Method in brief: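 Female BDF1 mice, 6 weeks old, six per group, given 5 Gy whole-body X-ray, then 0.1 mg/kg i.v. via tail vein within 2 hours. Platelets counted by hemocytometer in fundus-vein blood 10 days later; untreated and vehicle groups run alongside.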

blood platelets [4] = test: Blood-platelet-increasing effect upon normal mouse; format: in vivo, mouse (BDF1); conditions: normal mice; 6 days after 0.1 mg/kg i.v.; mean ± SD; vehicle per series 58.2, 63.0, 71.1
Method in brief: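 Female BDF1 mice, 6 weeks old (5 per group), received test sample at 0.1 mg/kg into the caudal vein. Six days later, fundus-vein blood was taken and platelets counted on a multi-channel hemocytometer, compared against vehicle-treated animals.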

Acute toxicity = format: in vivo; conditions: 7 days
Method: Test Example 2: Acute Toxicity
0.1, 1.0 or 10 mg/kg of Compound 5 or 33 was intravenously administered to Crj:CD rats (male, 5 weeks old), 6 rats in one group. 7 days after the administration, a toxicity test was carried out.

[5] = tested on: mononuclear cell fraction of human umbilical cord blood; test: Proliferation-stimulating effect on mononuclear cell fraction of human umbilical cord blood (3H-TdR uptake); format: cell-based; conditions: 96 h, percentage of control, 4 days; for activity at 0.1 µg/mL: 10^-1 μg/ml; for activity at 0.01 µg/mL: 10^-2 μg/ml; for activity at 0.001 µg/mL: 10^-3 μg/ml
Description: Pharmacological Test 3: Proliferation-Stimulating Effect on Mononuclear Cell Fraction of Human Umbilical Cord Blood
It is extremely difficult to obtain human marrow cells. In addition, human umbilical cord blood contains stem cells (Nakahata, T. & Ogwa, M., J. Clin. Inveet. 70, 1324-1328 (1982)), so that it can be a good source of hematopoietic stem/progenitor cell supply (H. E. Broxneyer et al, Proc. Natl. Acad. Sci. USA, 86, 3828-3832 (1989)). For these reasons, the effect on human was examined by using, instead of human marrow cells, human umbilical cord blood.
To human umbilical cord blood was added an equal amount of RPMI 1640. This was placed on a Lymphoprep and centrifugal. The mononuclear cell fraction (MNF) thus obtained was used in the following experiment.
The concentration of the MNF was adjusted to 1×10^6 cells/ml by using an RPMI 1640 added with 10% auto-blood plasma as a culture medium. 10 μl/well of a sample with a predetermined concentration and 100 μl/well of the above-prepared MNF were placed on a round-bottomed 96 well plate and incubated under the conditions of 37° C. and 5% CO2 for 4 days. Thereafter, 0.5 μCi/well of ^3 H-TdR was added. After 8 hour incubation, the cells were harvested, and the amount of the 3H-TdR taken in the nuclei was measured by a liquid scintillation counter.

[6] = day 10, controls per series 10, 10, 10, 10, 10, 8
[7] = day 15, controls per series 8, 9, 5, 5, 7, 1
[8] = day 20, controls per series 4, 5, 1, 2, 3, 0
[9] = day 25, controls per series 3, 3, 0, 0, 2, 0
[10] = day 30, controls per series 1, 1, 0, 0, 0, 0

| Compound | activity at 0.1 µg/mL [1] | activity at 0.01 µg/mL [1] | activity at 0.001 µg/mL [1] | Number of Surviving Mice [2, 6] | Number of Surviving Mice [2, 7] | Number of Surviving Mice [2, 8] | Number of Surviving Mice [2, 9] | Number of Surviving Mice [2, 10] | Number of Surviving Mice ([2]; day 35, all controls 0) | Number of Surviving Mice ([2]; day 40, all controls 0) | Number of Blood Platelets (blood platelets [3]) | Number of Blood Platelets (blood platelets [4]) | death of rats (Acute toxicity; 10 mg/kg i.v.) | post-mortem examination (Acute toxicity; i.v. 0.1, 1.0 or 10 mg/kg) | activity at 0.1 µg/mL [5] | activity at 0.01 µg/mL [5] | activity at 0.001 µg/mL [5] | activity at 1 µg/mL [1] |
| --- | --- | --- | --- | --- | --- | --- | --- | --- | --- | --- | --- | --- | --- | --- | --- | --- | --- | --- |
| CCCCCCCCCCCCCCC[C@@H](O)[C@H](CO[C@H]1O[C@H](CO)[C@H](O)[C@H](O)[C@H]1O)NC(=O)CCCCCCCCCCCCC [Compound 5, (2S,3R)-1-(α-D-galactopyranosyloxy)-2-tetradecanoylamino-3-octadecanol] | 377% | 261% | 234% | 10 mice | 9 mice | 9 mice | 9 mice | 9 mice | 9 mice | 9 mice | 20.3 ± 4.5 × 10^4 /μl | 106.0 ± 9.0 × 10^4 /μl | the rats did not die | no abnormality was found |  |  |  |  |
| CCCCCCCCCCCCCCCCCCCCCC[C@H](O)C(=O)N[C@@H](CO[C@H]1O[C@H](CO)[C@H](O)[C@H](O)[C@H]1O)[C@H](O)[C@H](O)CCCCCCCCCCCCC [Compound 28, (2S,3S,4R)-1-(α-D-galactopyranosyloxy)-2-[(S)-2-hydroxytetracosanoylaminol]-3,4-heptadecanediol] | 192% | 170% | 130% | 10 mice | 10 mice | 10 mice | 8 mice | 8 mice | 8 mice | 8 mice | 20.4 ± 4.5 × 10^4 /μl | 103.6 ± 8.8 × 10^4 /μl |  |  | 356% | 331% | 182% |  |
| CCCCCCCCCCCCCCCCCCCCCC[C@@H](O)C(=O)N[C@@H](CO[C@H]1O[C@H](CO)[C@H](O)[C@H](O)[C@H]1O)[C@H](O)[C@H](O)CCCCCCCCCCCCCC [Compound 21, (2S,3S,4R)-1-(α-D-galactopyranosyloxy) -2-[(R) -2-hydroxytetracosanoylamino]-3,4-octadecanediol] | 244% | 96% | 84% | 10 mice | 10 mice | 10 mice | 10 mice | 10 mice | 10 mice | 10 mice | 22.7 ± 3.7 × 10^4 /μl | 94.8 ± 7.7 × 10^4 /μl |  |  | 552% | 530% | 305% | 799% |
| CCCCCCCCCCCCCCCCCCCCCCCC(=O)N[C@@H](CO[C@H]1O[C@H](CO)[C@H](O)[C@H](O)[C@H]1O)[C@H](O)[C@H](O)CCCCCCCCCCCCCC [Compound 16, (2S,3S,4R)-1-(α-D-galactopyranosyloxy)-2-tetracosanoylamino-3,4-octadecanediol] | 495% | 152% | 115% | 10 mice | 6 mice | 6 mice | 6 mice | 6 mice | 6 mice | 6 mice | 21.1 ± 6.2 × 10^4 /μl | 114.7 ± 13.0 × 10^4 /μl |  |  | 311% | 204% | 216% |  |
| CCCCCCCCCCCCCCCCCCCCCC[C@@H](O)C(=O)N[C@@H](CO[C@H]1O[C@H](CO)[C@H](O)[C@H](O)[C@H]1O)[C@H](O)[C@H](O)CCCCCCCCCCC [Compound 23, (2S,3S,4R)-1-(α-D-galactopyranosyloxy)-2-[(R)-2-hydroxytetracosanoylamino]-3,4-pentadecanediol] | 312% | 89% | 81% | 10 mice | 10 mice | 9 mice | 9 mice | 9 mice | 9 mice | 9 mice | 21.0 ± 5.9 × 10^4 /μl | 108.7 ± 14.8 × 10^4 /μl |  |  | 402% | 344% | 197% | 761% |
| CCCCCCCCCCCCCCCCCCCCCCCC[C@@H](O)C(=O)N[C@@H](CO[C@H]1O[C@H](CO)[C@H](O)[C@H](O)[C@H]1O)[C@H](O)[C@H](O)CCCCCCCCCCCCCCCC [Compound 27, (2S,3S,4R)-1-(α-D-galactopyranosyloxy)-2-[(R)-2-hydroxyhexacosanoylamino]-3,4-icosanediol] | 220% | 165% | 156% | 10 mice | 10 mice | 9 mice | 9 mice | 9 mice | 9 mice | 9 mice | 16.0 ± 4.1 × 10^4 /μl | 101.3 ± 7.1 × 10^4 /μl |  |  | 450% | 486% | 344% |  |
